Source: the CheMixHub drug solubility set

Assay: xn = mol fraction of the nth substance listed, in the solute-free solvent

Nc1cncc(Cl)n1 + CCCO + O
solubility (g/100 g solution)
Conditions	278.15 K	283.15 K	288.15 K	293.15 K	298.15 K	303.15 K	308.15 K	313.15 K	318.15 K	323.15 K
x2 = 0.03225	–	–	–	–	–	–	–	–	–	0.0893
x2 = 0.06974	–	–	–	–	–	–	–	–	–	0.208
x2 = 0.1139	0.364	0.43	0.499	0.588	0.686	0.81	0.936	1.08	1.23	1.41
x2 = 0.1666	0.527	0.621	0.722	0.852	0.998	1.18	1.36	1.57	1.79	2.05
x2 = 0.2307	0.638	0.75	0.883	1.04	1.25	1.48	1.73	2.01	2.31	2.65
x2 = 0.3103	0.747	0.891	1.06	1.26	1.51	1.79	2.11	2.46	2.83	3.24
x2 = 0.4117	0.837	1.02	1.22	1.46	1.76	2.11	2.48	2.89	3.33	3.85
x2 = 0.5454	0.928	1.11	1.31	1.61	1.94	2.37	2.82	3.33	3.85	4.44
x2 = 0.7297	0.918	1.12	1.37	1.7	2.09	2.52	3.02	3.56	4.15	4.87

Oc1ccc(Cl)c2cccnc12 + CCCOC(C)=O + CCO
solubility (g/100 g solution)
Conditions	278.15 K	283.15 K	288.15 K	293.15 K	298.15 K	303.15 K	308.15 K	313.15 K	318.15 K	323.15 K
x2 = 0.1013	1.48	1.74	2.02	2.4	2.82	3.28	3.89	4.6	5.52	6.43
x2 = 0.2214	1.97	2.29	2.69	3.2	3.76	4.43	5.18	6.1	7.46	8.81
x2 = 0.4035	2.41	2.81	3.3	3.87	4.53	5.41	6.43	7.55	8.8	10.5
x2 = 0.6434	2.74	3.26	3.83	4.52	5.3	6.25	7.27	8.56	9.99	11.7

CCCCOc1ccc(C(=O)CCN2CCCCC2)cc1.Cl + CCO + CCCCCC
solubility (g/100 g solution)
Conditions	278.15 K	283.15 K	288.15 K	293.15 K	298.15 K	303.15 K	308.15 K	313.15 K	318.15 K	323.15 K
x2 = 0.1	2.56	2.95	3.35	3.75	4.22	4.75	5.33	5.97	6.73	7.53
x2 = 0.2	5.09	5.71	6.4	7.2	8.01	8.91	9.95	11.1	12.4	13.8
x2 = 0.3	7.84	8.72	9.72	10.8	12	13.4	14.9	16.6	18.4	20.3
x2 = 0.4	10.6	11.8	13.1	14.6	16.2	17.9	19.8	21.8	24	26.4
x2 = 0.5	13.7	15.2	16.8	18.6	20.5	22.6	24.8	27.3	29.9	32.6
x2 = 0.6	16.8	18.8	20.6	22.7	25	27.3	29.9	32.6	35.5	38.5
x2 = 0.7	20.3	22.4	24.6	27	29.4	32	35	37.9	41	44.1
x2 = 0.8	23.9	26.3	28.7	31.4	34.1	36.8	39.8	43	46.3	49.5
x2 = 0.9	27.7	30.4	33	35.8	38.8	41.8	45	48.3	51.6	54.9
